From patent publication US20240059689A1, “PURINE DERIVATIVES AS ANTICANCER AGENTS” (Tango Therapeutics, Inc., priority 2021, published 2024)

What was measured:
[1] = test system: MDA-MB-436; assay: Viability assay, BRCA1 mutant cell line MDA-MB-436; assay type: cell-based; settings: Homo sapiens, MDA-MB-436, viability, BRCA1 mutant MDA-MB-436; read-out: MDA-MB-436 rel IC50
From the text: (§1) Table 1 also indicates IC50 values in a viability assay for a non-isogenic pair of BRCA1 mutant (column 5-MDA-MB-436) and BRCA1 WT (column 6—HCC1954) cell lines. These values indicate the effect of treatment with compound on cell survival.

[2] = test system: monoubiquitinated PCNA; assay: AlphaLISA assay measuring monoubiquitinated PCNA in MDA-MB-436; assay type: cell-based; settings: Homo sapiens, MDA-MB-436, monoubiquitinated PCNA, read-out: Alpha Lisa IC50
From the text: Table 1 also indicates IC50 values for exemplary compounds in an AlphaLISA assay measuring monoubiquitinated PCNA in a BRCA1 mutant cell line (MDA-MB-436; column 7).

[3] = target: USP1-UAF1 (Homo sapiens, UniProt O94782); assay: Ubiquitin Rhodamine assay of USP1-UAF1 activity; assay type: biochemical
Chain of USP1-UAF1 (O94782 whole entry): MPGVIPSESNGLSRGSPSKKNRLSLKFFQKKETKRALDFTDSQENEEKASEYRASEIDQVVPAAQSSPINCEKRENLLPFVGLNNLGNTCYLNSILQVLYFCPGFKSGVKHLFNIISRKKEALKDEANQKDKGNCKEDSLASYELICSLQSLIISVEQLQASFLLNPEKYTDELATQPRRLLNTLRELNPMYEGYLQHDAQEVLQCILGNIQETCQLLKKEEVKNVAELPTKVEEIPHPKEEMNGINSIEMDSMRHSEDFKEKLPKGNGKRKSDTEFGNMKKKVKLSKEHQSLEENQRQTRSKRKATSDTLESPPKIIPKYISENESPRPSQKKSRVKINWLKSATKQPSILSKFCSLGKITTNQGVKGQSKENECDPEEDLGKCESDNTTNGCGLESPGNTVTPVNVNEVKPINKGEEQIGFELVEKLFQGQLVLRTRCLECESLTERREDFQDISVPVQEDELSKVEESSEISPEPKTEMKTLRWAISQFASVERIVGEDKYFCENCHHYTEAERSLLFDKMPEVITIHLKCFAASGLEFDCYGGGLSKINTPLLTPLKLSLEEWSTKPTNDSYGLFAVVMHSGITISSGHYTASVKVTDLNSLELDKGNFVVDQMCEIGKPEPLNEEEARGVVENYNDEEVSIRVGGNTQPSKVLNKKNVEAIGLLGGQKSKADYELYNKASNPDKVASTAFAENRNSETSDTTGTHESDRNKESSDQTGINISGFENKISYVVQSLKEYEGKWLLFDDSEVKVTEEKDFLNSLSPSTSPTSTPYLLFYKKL
Chain of USP1-UAF1 (Q8TAF3 whole entry partner): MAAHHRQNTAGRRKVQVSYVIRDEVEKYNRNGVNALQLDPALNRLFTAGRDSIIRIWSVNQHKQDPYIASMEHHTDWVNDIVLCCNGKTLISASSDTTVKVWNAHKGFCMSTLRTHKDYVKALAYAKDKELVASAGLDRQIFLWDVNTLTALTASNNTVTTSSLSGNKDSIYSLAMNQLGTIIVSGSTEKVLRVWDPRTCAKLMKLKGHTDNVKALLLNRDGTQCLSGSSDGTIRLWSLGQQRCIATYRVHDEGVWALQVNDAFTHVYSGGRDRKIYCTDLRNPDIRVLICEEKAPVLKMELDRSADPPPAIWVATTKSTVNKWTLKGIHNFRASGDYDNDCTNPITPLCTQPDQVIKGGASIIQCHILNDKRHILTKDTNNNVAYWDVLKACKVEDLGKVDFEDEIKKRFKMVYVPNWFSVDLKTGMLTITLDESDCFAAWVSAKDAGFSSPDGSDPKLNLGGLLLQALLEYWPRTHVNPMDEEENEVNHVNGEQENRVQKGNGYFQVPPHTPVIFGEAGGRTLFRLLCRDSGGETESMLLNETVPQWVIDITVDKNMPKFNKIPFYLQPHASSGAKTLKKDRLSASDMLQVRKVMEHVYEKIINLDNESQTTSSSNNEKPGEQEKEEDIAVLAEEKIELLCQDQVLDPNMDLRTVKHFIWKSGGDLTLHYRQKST
Procedure: Certain compounds of the disclosure were assessed for USP1-UAF1 activity in a Ubiquitin Rhodamine assay as described in Biology Example 1.

[4] = test system: HCC1954; assay: Viability assay, BRCA1 WT cell line HCC1954; assay type: cell-based; settings: Homo sapiens, HCC1954, viability, read-out: HCC1954 rel IC50
From the text: as §1

For `COc1ncccc1-c1ncc2c(n1)n(Cc1ccc(-c3nc(C(F)(F)F)cn3C)cc1)c(=N)n2CC(F)(F)F` [Example T-097, 2-(2-methoxy-3-pyridyl)-9-[[4-[1-methyl-4-(trifluoromethyl)imidazol-2-yl]phenyl]methyl]-7-(2,2,2-trifluoroethyl)purin-8-imine], which IC50 [1] is on record?
The IC50 was 100 to 250 nM.

What about the IC50 [2] of the same compound?
Its IC50 is 250 to 10000 nM.

What about the IC50 [3] of the same compound?
Its IC50 is 30 to 100 nM.

What about the IC50 [4] of the same compound?
Its IC50 is ≥ 10000 nM.

How did the IC50 [1] turn out when `CC(C)c1ccccc1-c1ncc2c(n1)n(CC1CCN(c3nc(Cl)cn3C)CC1)c(=N)n2C` [Example A-3, 9-((1-(4-chloro-1-methyl-1H-imidazol-2-yl)piperidin-4-yl)methyl)-2-(2-isopropylphenyl)-7-methyl-7H-purin-8(9H)-imine] was run?
Its IC50 is 250 to 10000 nM.

What about the IC50 [2] of the same compound?
Its IC50 is 250 to 10000 nM.

And the IC50 [3]?
Its IC50 is 100 to 10000 nM.

And the IC50 [4]?
Its IC50 is ≥ 10000 nM.

For `COc1ncnc(C(F)(F)F)c1-c1ncc2c(n1)n(Cc1ccc(-c3nc(C(F)(F)F)cn3C)cc1)c(=N)n2CC(F)(F)F` [Example T-144, 2-[4-methoxy-6-(trifluoromethyl)pyrimidin-5-yl]-9-[[4-[1-methyl-4-(trifluoromethyl)imidazol-2-yl]phenyl]methyl]-7-(2,2,2-trifluoroethyl)purin-8-imine], which IC50 [1] is on record?
The IC50 was 100 to 250 nM.

And the IC50 [2]?
Its IC50 is 100 to 250 nM.

What about the IC50 [3] of the same compound?
The IC50 was 30 to 100 nM.

And the IC50 [4]?
The IC50 was ≥ 10000 nM.

How did the IC50 [1] turn out when `C=C(C)c1ccc(F)cc1-c1nc(C)c2c(n1)n(Cc1ccc(-c3nc(Cl)cn3C)cc1)c(=N)n2C` [Example A-44, 9-(4-(4-chloro-1-methyl-1H-imidazol-2-yl)benzyl)-2-(5-fluoro-2-(prop-1-en-2-yl)phenyl)-6,7-dimethyl-7,9-dihydro-8H-purin-8-imine] was run?
The IC50 was 250 to 10000 nM.

And the IC50 [2]?
The IC50 was 250 to 10000 nM.

What about the IC50 [3] of the same compound?
The IC50 was 30 to 100 nM.

What about the IC50 [4] of the same compound?
Its IC50 is 250 to 10000 nM.

For `Cn1cc(C(F)(F)F)nc1-c1ccc(Cn2c(=N)n(C)c3cnc(-c4ccccc4C4CC4)nc32)cc1` [Example T-087, 2-(2-cyclopropylphenyl)-7-methyl-9-[[4-[1-methyl-4-(trifluoromethyl)imidazol-2-yl]phenyl]methyl]purin-8-imine], which IC50 [1] is on record?
Its IC50 is < 100 nM.

What about the IC50 [2] of the same compound?
The IC50 was < 100 nM.

What about the IC50 [3] of the same compound?
Its IC50 is < 30 nM.

What about the IC50 [4] of the same compound?
Its IC50 is 250 to 10000 nM.

What does the source list for `COc1ncnc(OC)c1-c1ncc2c(n1)n(Cc1ccc(-c3nc(C(F)(F)F)cn3C)cc1)c(=N)n2CC(F)(F)F` [Example T-110, 2-(4,6-dimethoxypyrimidin-5-yl)-9-[[4-[1-methyl-4-(trifluoromethyl)imidazol-2-yl]phenyl]methyl]-7-(2,2,2-trifluoroethyl)purin-8-imine]?
IC50 [1]: 100 to 250 nM; IC50 [2]: 250 to 10000 nM; IC50 [3]: 30 to 100 nM; IC50 [4]: ≥ 10000 nM

What does the source list for `COc1ncnc(C2CC2)c1-c1ncc2c(n1)n(Cc1ccc(-c3nc(C(F)(F)F)cn3C(C)C)cc1)c(=N)n2CC(F)(F)F` [Example T-108]?
IC50 [1]: < 100 nM; IC50 [2]: < 100 nM; IC50 [3]: 30 to 100 nM; IC50 [4]: ≥ 10000 nM

How did the IC50 [1] turn out when `Cc1cnn(C(C)C)c1-c1ncc2c(n1)n(Cc1ccc(-c3nc(C(F)(F)F)cn3C)cc1)c(=N)n2CC(F)(F)F` [Example T-130, 2-(2-isopropyl-4-methyl-pyrazol-3-yl)-9-[[4-[1-methyl-4-(trifluoromethyl)imidazol-2-yl]phenyl]methyl]-7-(2,2,2-trifluoroethyl)purin-8-imine] was run?
The IC50 was < 100 nM.

What about the IC50 [2] of the same compound?
Its IC50 is < 100 nM.

What about the IC50 [3] of the same compound?
The IC50 was < 30 nM.

And the IC50 [4]?
The IC50 was ≥ 10000 nM.

What does the source list for `COc1nc(C)nc(C2CC2)c1-c1ncc2c(n1)n(Cc1ccc(-c3nc(C(F)(F)F)cn3C)cc1)c(=N)n2C` [Example T-146, 2-(4-cyclopropyl-6-methoxy-2-methyl-pyrimidin-5-yl)-7-methyl-9-[[4-[1-methyl-4-(trifluoromethyl)imidazol-2-yl]phenyl]methyl]purin-8-imine]?
IC50 [1]: < 100 nM; IC50 [2]: < 100 nM; IC50 [3]: 30 to 100 nM; IC50 [4]: ≥ 10000 nM

Which IC50 [1] does the source give for `Cc1nc(-c2ccccc2Cl)nc2c1n(C)c(=N)n2Cc1ccc(-c2nc(Cl)cn2C)cc1` [Example A-36, 9-(4-(4-chloro-1-methyl-1H-imidazol-2-yl)benzyl)-2-(2-chlorophenyl)-6,7-dimethyl-7,9-dihydro-8H-purin-8-imine] here?
The IC50 was 250 to 10000 nM.

And the IC50 [2]?
The IC50 was 250 to 10000 nM.

What about the IC50 [3] of the same compound?
Its IC50 is 100 to 10000 nM.

And the IC50 [4]?
The IC50 was ≥ 10000 nM.

How did the IC50 [1] turn out when `COc1ncccc1-c1ncc2c(n1)n(Cc1ccc(-c3nc(C(F)(F)F)cn3C)cc1)c(=N)n2C` [Example T-090] was run?
Its IC50 is 250 to 10000 nM.

And the IC50 [2]?
The IC50 was 250 to 10000 nM.

And the IC50 [3]?
The IC50 was 100 to 10000 nM.

And the IC50 [4]?
Its IC50 is ≥ 10000 nM.

For `CC(C)c1ccccc1-c1nc(N(C)C)c2c(n1)n(Cc1ccc(-c3nc(C(F)(F)F)cn3C)cc1)c(=N)n2C` [Example A-17, 8-imino-2-(2-isopropylphenyl)-N,N,7-trimethyl-9-(4-(1-methyl-4-(trifluoromethyl)-1H-imidazol-2-yl)benzyl)-8,9-dihydro-7H-purin-6-amine], which IC50 [1] is on record?
Its IC50 is 250 to 10000 nM.

What about the IC50 [2] of the same compound?
Its IC50 is 250 to 10000 nM.

What about the IC50 [3] of the same compound?
The IC50 was 100 to 10000 nM.

What about the IC50 [4] of the same compound?
The IC50 was 250 to 10000 nM.

What does the source list for `Cn1cc(C(F)(F)F)nc1-c1ccc(Cn2c(=N)n(C)c3cnc(-c4c(F)cccc4OC(F)F)nc32)cc1` [Example T-036, 2-[2-(difluoromethoxy)-6-fluoro-phenyl]-7-methyl-9-[[4-[1-methyl-4-(trifluoromethyl)imidazol-2-yl]phenyl]methyl]purin-8-imine]?
IC50 [1]: < 100 nM; IC50 [2]: < 100 nM; IC50 [3]: < 30 nM; IC50 [4]: ≥ 10000 nM

`COc1ncnc(C2CC2)c1-c1ncc2c(n1)n(Cc1ccc(-c3nc(C(F)(F)F)cn3CC(F)F)cc1)c(=N)n2C` [Example T-069] was tested. Which IC50 [1] did it give?
Its IC50 is 100 to 250 nM.

What about the IC50 [2] of the same compound?
Its IC50 is 100 to 250 nM.

What about the IC50 [3] of the same compound?
Its IC50 is 30 to 100 nM.

What about the IC50 [4] of the same compound?
Its IC50 is ≥ 10000 nM.

With `COc1ncnc(C2CC2)c1-c1ncc2c(n1)n(Cc1ccc(-c3nc(C(F)(F)F)cn3C)cc1)c(=N)n2CC(F)F` [Example T-123, 2-(4-cyclopropyl-6-methoxy-pyrimidin-5-yl)-7-(2,2-difluoroethyl)-9-[[4-[1-methyl-4-(trifluoromethyl)imidazol-2-yl]phenyl]methyl]purin-8-imine] as the compound, how does the IC50 [1] read?
Its IC50 is < 100 nM.

What about the IC50 [2] of the same compound?
Its IC50 is < 100 nM.

What about the IC50 [3] of the same compound?
Its IC50 is 30 to 100 nM.

What about the IC50 [4] of the same compound?
Its IC50 is ≥ 10000 nM.

Which IC50 [1] does the source give for `COc1ncnc(C2CC2)c1-c1ncc2c(n1)n([C@H](C)c1ccc(-c3nc(C(F)(F)F)cn3C)cc1)c(=N)n2CC(F)(F)F` [Example T-143, (R)-2-(4-cyclopropyl-6-methoxypyrimidin-5-yl)-9-(1-(4-(1-methyl-4-(trifluoromethyl)-1H-imidazol-2-yl)phenyl)ethyl)-7-(2,2,2-trifluoroethyl)-7,9-dihydro-8H-purin-8-imine] here?
The IC50 was < 100 nM.

And the IC50 [2]?
The IC50 was < 100 nM.

What about the IC50 [3] of the same compound?
The IC50 was 30 to 100 nM.

What about the IC50 [4] of the same compound?
The IC50 was ≥ 10000 nM.

How did the IC50 [1] turn out when `Cn1cc(C(F)(F)F)nc1-c1ccc(Cn2c(=N)n(C)c3cnc(-c4c(Cl)cccc4Cl)nc32)cc1` [Example B-5, 2-(2,6-dichlorophenyl)-7-methyl-9-(4-(1-methyl-4-(trifluoromethyl)-1H-imidazol-2-yl)benzyl)-7,9-dihydro-8H-purin-8-imine] was run?
The IC50 was 100 to 250 nM.

What about the IC50 [2] of the same compound?
The IC50 was 100 to 250 nM.

And the IC50 [3]?
The IC50 was < 30 nM.

And the IC50 [4]?
Its IC50 is 250 to 10000 nM.

How did the IC50 [1] turn out when `CCn1cc(C(F)(F)F)nc1-c1ccc(Cn2c(=N)n(CC(F)(F)F)c3cnc(-c4c(OC)ncnc4C4CC4)nc32)cc1` [Example T-132] was run?
The IC50 was < 100 nM.

And the IC50 [2]?
Its IC50 is < 100 nM.

What about the IC50 [3] of the same compound?
Its IC50 is 30 to 100 nM.

And the IC50 [4]?
Its IC50 is ≥ 10000 nM.

`CCOc1cc(C(F)(F)F)nn1-c1ccc(Cn2c(=N)n(C)c3cnc(-c4c(OC)ncnc4C4CC4)nc32)cc1` [Example T-094] was tested. Which IC50 [1] did it give?
The IC50 was < 100 nM.

And the IC50 [2]?
Its IC50 is < 100 nM.

And the IC50 [3]?
Its IC50 is < 30 nM.

What about the IC50 [4] of the same compound?
The IC50 was ≥ 10000 nM.

How did the IC50 [1] turn out when `CC(C)c1ccccc1-c1ncc2c(n1)n(Cc1ccc(-c3nc(C(F)(F)F)cn3C)cc1Cl)c(=N)n2C` [Example T-047] was run?
Its IC50 is 250 to 10000 nM.

What about the IC50 [2] of the same compound?
Its IC50 is 100 to 250 nM.

What about the IC50 [3] of the same compound?
Its IC50 is 30 to 100 nM.

And the IC50 [4]?
The IC50 was ≥ 10000 nM.
